BigSolDB 2.1

solubility (mole fraction) (in PEGDME 250, 293.15 K) | solubility (mole fraction) (in PEGDME 250, 298.15 K) | solubility (mole fraction) (in PEGDME 250, 303.15 K) | solubility (mole fraction) (in PEGDME 250, 308.15 K) | solubility (mole fraction) (in PEGDME 250, 313.15 K) | solubility (mole fraction) (in water, 293.15 K) | solubility (mole fraction) (in water, 298.15 K) | solubility (mole fraction) (in water, 303.15 K) | solubility (mole fraction) (in water, 308.15 K) | solubility (mole fraction) (in water, 313.15 K) | SMILES
0.347 | 0.382 | 0.415 | 0.45 | 0.486 | 0.000205 | 0.000251 | 0.000306 | 0.000372 | 0.00046 | O=C(O)c1ccccc1O
0.15 | 0.174 | 0.196 | 0.216 | 0.236 | 0.00151 | 0.00201 | 0.0022 | 0.00288 | 0.00334 | CC(=O)Nc1ccc(O)cc1
